# Assay results published in patent publication US9067871B2, “Aminotetraline derivatives, pharmaceutical compositions containing them, and their use in therapy” (ABBVIE DEUTSCHLAND GMBH & CO KG, priority 2009, dated 2015).
# pKi: −log10 of the molar value. Counter-ions that a name gives are not always drawn.
# Target: human GlyT1c transporter (Homo sapiens (Human), UniProt P48067)
# Test: Radioligand binding assay using recombinant CHO cell membranes expressing human GlyT1
# Conditions: human GlyT1c-expressing CHO cell membranes; hydrochloride; read-out: radioligand binding Kiapp
# Source text: 2. Radioligand binding assays using recombinant CHO cell membranes expressing human GlyT1: […]
# Chain of human GlyT1c transporter (P48067 whole entry): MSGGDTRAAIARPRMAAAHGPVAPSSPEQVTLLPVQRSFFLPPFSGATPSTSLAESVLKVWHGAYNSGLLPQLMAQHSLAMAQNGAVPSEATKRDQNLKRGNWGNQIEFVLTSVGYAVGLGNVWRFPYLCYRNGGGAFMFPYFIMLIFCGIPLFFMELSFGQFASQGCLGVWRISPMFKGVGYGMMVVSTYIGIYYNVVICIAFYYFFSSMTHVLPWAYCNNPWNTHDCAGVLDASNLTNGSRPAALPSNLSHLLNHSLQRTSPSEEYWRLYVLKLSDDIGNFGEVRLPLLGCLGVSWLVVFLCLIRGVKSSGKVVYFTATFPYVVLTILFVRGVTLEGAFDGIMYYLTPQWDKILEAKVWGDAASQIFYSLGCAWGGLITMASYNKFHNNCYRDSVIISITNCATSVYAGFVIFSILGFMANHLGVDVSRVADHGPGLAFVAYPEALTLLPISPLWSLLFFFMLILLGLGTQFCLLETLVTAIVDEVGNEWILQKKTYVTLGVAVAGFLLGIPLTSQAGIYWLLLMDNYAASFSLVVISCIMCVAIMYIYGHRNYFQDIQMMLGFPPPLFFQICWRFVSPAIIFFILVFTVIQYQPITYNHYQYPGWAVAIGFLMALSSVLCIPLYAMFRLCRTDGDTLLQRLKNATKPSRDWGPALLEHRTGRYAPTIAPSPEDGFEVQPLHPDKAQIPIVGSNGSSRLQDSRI
row,SMILES,pKi
1,"NC1CCc2ccc(OCCNS(=O)(=O)CCC(F)(F)F)cc2C1Cc1ccccc1 (centres unmarked) [Example 100, 3,3,3-Trifluoro-propane-1-sulfonic acid [2-(7-amino-8-benzyl-5,6,7,8-tetrahydronaphthalen-2-yloxy)-ethyl]amide hydrochloride]",≥ 6.00

# Same assay, conditions: human GlyT1c-expressing CHO cell membranes; read-out: radioligand binding Kiapp
row,SMILES,pKi
1,"NC1CCc2ccc(OCCNS(=O)(=O)CC3CC3)cc2C1Cc1cccc(F)c1 (centres unmarked) [Example 235, N-(2-{[7-Amino-8-(3-fluorobenzyl)-5,6,7,8-tetrahydronaphthalen-2-yl]oxy}ethyl)-1-cyclopropylmethanesulfonamide hydrochloride]",≥ 8.00
2,"CN(CCOc1ccc2c(c1)C(Cc1ccc(Cl)c(Cl)c1)C(N1CCCC1)CC2)S(=O)(=O)C1CCC1 (centres unmarked) [Example 94, Cyclobutanesulfonic acid {2-[8-(3,4-dichloro-benzyl)-7-pyrrolidin-1-yl-5,6,7,8-tetrahydronaphthalen-2-yloxy]-ethyl}-methyl-amide hydrochloride]",≥ 7.00
3,"CCN(CCOc1ccc2c(c1)C(Cc1ccccc1)C(N)CC2)S(=O)(=O)c1cnn(C)c1 (centres unmarked) [Example 113, N-(2-(7-Amino-8-benzyl-5,6,7,8-tetrahydronaphthalen-2-yloxy)ethyl)-N-ethyl-1-methyl-1H-pyrazole-4-sulfonamide hydrochloride]",≥ 7.00
4,"Cn1cnc(S(=O)(=O)NCc2ccc3c(c2)C(Cc2ccc(F)cc2)C(N)CC3)c1 (centres unmarked) [Example 176, N-{[7-Amino-8-(4-fluorobenzyl)-5,6,7,8-tetrahydronaphthalen-2-yl]methyl}-1-methyl-1H-imidazole-4-sulfonamide hydrochloride]",≥ 7.00
5,"CN(CCOc1ccc2c(c1)C(Cc1ccccc1)C(N1CCC1)CC2)S(=O)(=O)c1cn(C)cn1 (centres unmarked) [Example 105, 1-Methyl-1H-imidazole-4-sulfonic acid [2-(7-azetidin-1-yl-8-benzyl-5,6,7,8-tetrahydronaphthalen-2-yloxy)-ethyl]-methyl-amide]",≥ 7.00
6,"CCNC1CCc2ccc(CNS(=O)(=O)c3cnn(C)c3)cc2C1Cc1cccc(F)c1 (centres unmarked) [Example 200, 1-Methyl-1H-pyrazole-4-sulfonic acid [7-ethylamino-8-(3-fluoro-benzyl)-5,6,7,8-tetrahydronaphthalen-2-ylmethyl]-amide hydrochloride]",≥ 7.00
7,"CC(C)NC1CCc2ccc(OCCNS(=O)(=O)CC3CC3)cc2C1Cc1cccc(C#N)c1 (centres unmarked) [Example 156, N-(2-{[8-(3-Cyanobenzyl)-7-(propan-2-ylamino)-5,6,7,8-tetrahydronaphthalen-2-yl]oxy}ethyl)-1-cyclopropylmethanesulfonamide hydrochloride]",≥ 6.00
8,"CCCS(=O)(=O)NCCCc1ccc2c(c1)C(Cc1ccc(Cl)c(Cl)c1)C(N)CC2 (centres unmarked) [Example 203, N-{3-[7-Amino-8-(3,4-dichlorobenzyl)-5,6,7,8-tetrahydronaphthalen-2-yl]propyl}propane-1-sulfonamide hydrochloride]",≥ 8.00
9,"Cn1ccc(S(=O)(=O)NCCOc2ccc3c(c2)C(Cc2ccccc2)C(N2CCC2)CC3)c1 (centres unmarked) [Example 268, N-(2-{[7-(Azetidin-1-yl)-8-benzyl-5,6,7,8-tetrahydronaphthalen-2-yl]oxy}ethyl)-1-methyl-1H-pyrrole-3-sulfonamide]",≥ 8.00
10,"CCCS(=O)(=O)NCCCc1ccc2c(c1)C(Cc1cccc(F)c1)C(N)CC2 (centres unmarked) [Example 209, N-{3-[7-Amino-8-(3-fluorobenzyl)-5,6,7,8-tetrahydronaphthalen-2-yl]propyl}propane-1-sulfonamide hydrochloride]",≥ 7.00
11,"CCOC(=O)NC1CCc2ccc(OCCNS(=O)(=O)c3cn(C)cn3)cc2C1Cc1ccccc1Cl (centres unmarked) [Example 298, {1-(2-Chloro-benzyl)-7-[2-(1-methyl-1H-imidazole-4-sulfonylamino)-ethoxy]-1,2,3,4-tetrahydro-naphthalen-2-yl}-carbamic acid ethyl ester]",≥ 5.00
12,"CNC1CCc2ccc(OCCNS(=O)(=O)c3ccn(C)c3)cc2C1Cc1cc(F)cc(F)c1 (centres unmarked) [Example 246, N-(2-{[8-(3,5-Difluorobenzyl)-7-(methylamino)-5,6,7,8-tetrahydronaphthalen-2-yl]oxy}ethyl)-1-methyl-1H-pyrrole-3-sulfonamide hydrochloride]",≥ 8.00
13,"Cn1cnc(S(=O)(=O)NCc2ccc3c(c2)C(Cc2ccccc2)C(N2CCCC2)CC3)c1 (centres unmarked) [Example 262, N-{[8-Benzyl-7-(pyrrolidin-1-yl)-5,6,7,8-tetrahydronaphthalen-2-yl]methyl}-1-methyl-1H-imidazole-4-sulfonamide]",≥ 7.00
14,"O=S(=O)(CC1CC1)NCCOc1ccc2c(c1)C(Cc1cccc(Cl)c1)C(N1CCC1)CC2 (centres unmarked) [Example 320, N-{2-[7-Azetidin-1-yl-8-(3-chloro-benzyl)-5,6,7,8-tetrahydro-naphthalen-2-yloxy]-ethyl}-C-cyclopropyl-methanesulfonamide]",≥ 7.00
15,"Cc1cccc(CC2c3cc(OCCNS(=O)(=O)c4cn(C)cn4)ccc3CCC2N2CCCC2)c1 (centres unmarked) [Example 163, 1-Methyl-N-(2-{[8-(3-methylbenzyl)-7-(pyrrolidin-1-yl)-5,6,7,8-tetrahydronaphthalen-2-yl]oxy}ethyl)-1H-imidazole-4-sulfonamide]",≥ 8.00
16,"Cn1cnc(S(=O)(=O)NCc2ccc3c(c2)C(Cc2ccccc2)C(N2CCOCC2)CC3)c1 (centres unmarked) [Example 257, N-{[8-Benzyl-7-(morpholin-4-yl)-5,6,7,8-tetrahydronaphthalen-2-yl]methyl}-1-methyl-1H-imidazole-4-sulfonamide]",≥ 7.00
17,"O=S(=O)(CC1CC1)NCCOc1ccc2c(c1)C(Cc1ccccc1)C(N1CCCC1)CC2 (centres unmarked) [Example 133, N-(2-{[8-Benzyl-7-(pyrrolidin-1-yl)-5,6,7,8-tetrahydronaphthalen-2-yl]oxy}ethyl)-1-cyclopropylmethanesulfonamide hydrochloride]",≥ 7.00
18,"NC1CCc2ccc(OCCNS(=O)(=O)CC3CC3)cc2C1Cc1ccc(Cl)c(Cl)c1 (centres unmarked) [Example 95, N-{2-[7-Amino-8-(3,4-dichloro-benzyl)-5,6,7,8-tetrahydro-naphthalen-2-yloxy]-ethyl}-C-cyclopropyl-methanesulfonamide hydrochloride]",≥ 8.00
19,"NC1CCc2ccc(CNS(=O)(=O)C3CCC3)cc2C1Cc1ccc(F)cc1 (centres unmarked) [Example 174, N-{[7-Amino-8-(4-fluorobenzyl)-5,6,7,8-tetrahydronaphthalen-2-yl]methyl}cyclobutanesulfonamide hydrochloride]",≥ 6.00
20,"CCCS(=O)(=O)N1CC(c2ccc3c(c2)C(Cc2cccc(Cl)c2)C(N)CC3)C1 (centres unmarked) [Example 283, 1-(3-Chloro-benzyl)-7-[1-(propane-1-sulfonyl)-azetidin-3-yl]-1,2,3,4-tetrahydro-naphthalen-2-ylamine hydrochloride]",≥ 6.00
21,"CNC1CCc2ccc(OCCNS(=O)(=O)CC3CC3)cc2C1Cc1cc(F)cc(F)c1 (single isomer, unassigned; enantiomer 1) [Example 245, Enantiomer 1 of 1-cyclopropyl-N-(2-{[8-(3,5-difluorobenzyl)-7-(methylamino)-5,6,7,8-tetrahydronaphthalen-2-yl]oxy}ethyl)methanesulfonamide hydrochloride]",≥ 6.00
22,"O=S(=O)(NCCOc1ccc2c(c1)C(Cc1ccc(Cl)c(Cl)c1)C(N1CCCC1)CC2)C1CCC1 (centres unmarked) [Example 88, Cyclobutanesulfonic acid {2-[8-(3,4-dichloro-benzyl)-7-pyrrolidin-1-yl-5,6,7,8-tetrahydronaphthalen-2-yloxy]-ethyl}-amide hydrochloride]",≥ 7.00
23,"CCCS(=O)(=O)N(C)CCCc1ccc2c(c1)C(Cc1ccc(Cl)cc1)C(N)CC2 (centres unmarked) [Example 234, N-{3-[7-Amino-8-(4-chlorobenzyl)-5,6,7,8-tetrahydronaphthalen-2-yl]propyl}-N-methylpropane-1-sulfonamide hydrochloride]",≥ 7.00
24,"O=S(=O)(NCc1ccc2c(c1)C(Cc1ccccc1)C(N1CCOCC1)CC2)C1CCC1 (centres unmarked) [Example 261, N-{[8-Benzyl-7-(morpholin-4-yl)-5,6,7,8-tetrahydronaphthalen-2-yl]methyl}cyclobutanesulfonamide]",≥ 6.00
25,"CC(C)S(=O)(=O)NCCOc1ccc2c(c1)C(Cc1ccc(Cl)c(Cl)c1)C(N)CC2 (centres unmarked) [Example 91, Propane-2-sulfonic acid {2-[7-amino-8-(3,4-dichloro-benzyl)-5,6,7,8-tetrahydronaphthalen-2-yloxy]-ethyl}-amide hydrochloride]",≥ 7.00
26,"Cn1cc(S(=O)(=O)NCCOc2ccc3c(c2)C(Cc2ccccc2Cl)C(N)CC3)cn1 (centres unmarked) [Example 301, 1-Methyl-1H-pyrazole-4-sulfonic acid {2-[7-amino-8-(2-chloro-benzyl)-5,6,7,8-tetrahydronaphthalen-2-yloxy]-ethyl}-amide hydrochloride]",≥ 8.00
27,"O=S(=O)(CC1CC1)NCCOc1ccc2c(c1)C(Cc1cc(F)cc(Cl)c1)C(N1CCC1)CC2 (centres unmarked) [Example 159, N-(2-{[7-(Azetidin-1-yl)-8-(3-chloro-5-fluorobenzyl)-5,6,7,8-tetrahydronaphthalen-2-yl]oxy}ethyl)-1-cyclopropylmethanesulfonamide (2E)-but-2-enedioate]",≥ 7.00
28,"CCCS(=O)(=O)NCCCc1ccc2c(c1)C(Cc1ccccc1Cl)C(N)CC2 (centres unmarked) [Example 211, N-{3-[7-Amino-8-(2-chlorobenzyl)-5,6,7,8-tetrahydronaphthalen-2-yl]propyl}propane-1-sulfonamide hydrochloride]",≥ 6.00
29,"CCCS(=O)(=O)NCCOc1ccc2c(c1)C(Cc1ccccc1Cl)C(N)CC2 (centres unmarked) [Example 293, Propane-1-sulfonic acid {2-[7-amino-8-(2-chloro-benzyl)-5,6,7,8-tetrahydro-naphthalen-2-yloxy]-ethyl}-amide hydrochloride]",≥ 6.00
30,"NC1CCc2ccc(OCCNS(=O)(=O)C3CCCCC3)cc2C1Cc1ccc(Cl)c(Cl)c1 (centres unmarked) [Example 85, Cyclohexanesulfonic acid {2-[7-amino-8-(3,4-dichloro-benzyl)-5,6,7,8-tetrahydro-naphthalen-2-yloxy]-ethyl}-amide hydrochloride]",≥ 6.00

# Same assay, conditions: read-out: radioligand binding Kiapp
row,SMILES,pKi
1,CCCS(=O)(=O)N(CCOc1ccc2c(c1)C(Cc1cccc(Cl)c1)C(NC(=O)OCC)CC2)C1CC1 (centres unmarked) [Example 279],≥ 5.00
